How the values were obtained:
[1] = system: enzyme HDC; experiment: RIA (radioimmunoassay) of the histamine produced by the HDC enzyme; type: biochemical; settings: for % I (Inhibition) à 5 min / histamine libérée / % I (Inhibition) à 10 min: histidine 16.10^-3 molaire, effector 2.10^-3 molaire; for % I (Inhibition) à 5 min / % I (Inhibition) à 10 min: pH 6,3, 2000 µM; for histamine libérée: phosphate buffer pH 6,3
Source text: On peut également mettre en évidence l'activité anti-histaminique de la cucurbitine par un dosage radioimmunologique (Radio Immuno Assay ou "RIA") de la manière suivante.
Ce dosage a lieu en dosant l'histamine directement produite sous l'action de l'enzyme HDC, par la méthode RIA, bien connue à l'homme de l'art, et notamment décrite dans la notice d'utilisation d'un kit de dosage dénommé HISTAMINE Radioimmunoassay kit (Cat. # 1302) commercialisé par la Société IMMUNOTECH (Marseille-France).
On dose au cours du temps La quantité d'histamine libérée (en nanomoles) pour une concentration de 16.10^-3 molaire d'histidine dans un tampon phosphate à pH 6,3, respectivement sans effecteur, avec la tritoqualine comme effecteur de comparaison et avec de la cucurbitine racémique de synthèse comme agent anti-histaminique selon l'invention. La tritoqualine et la cucurbitine sont utilisées à la concentration de 2.10^-3 molaire.
Les résultats obtenus exprimés en nanomoles […] libérée sont répertoriés au tableau III ci-après et font l'objet de la courbe de la figure 2 où l'on a indiqué en ordonnées le nombre de nanomoles d'histamine libérée et en abscisses le temps exprimé en minute. La courbe sans effecteur est tracée en trait continu, la courbe obtenue avec la tritoqualine est tracée en trait mixte et la courbe obtenue avec la cucurbitine est tracée en pointillés. TABLEAU III

[2] = system: histidine décarboxylase (HDC); experiment: Enzymatic test: colorimetric assay (MBTH/DMAB) of histidine decarboxylase inhibition, initial reaction rates (Michaelis curves); type: biochemical; settings: for vitesse initiale: racemic cucurbitine
Source text: Ce test est basé sur l'action inhibitrice de la cucurbitine sur l'enzyme histidine décarboxylase (HDC) qui transforme l'histidine en histamine, par rapport à celle de la tritoqualine, qui est un inhibiteur connu de l'HDC (voir Carpi C., Maggi G.C. Bull. Soc Ital. Sper. 1968, 44 (6 543-4), et qui est utilisée en thérapeutique comme hypohistaminémiant sous le non de Hypostamine®.
L'activité inhibitrice sur l'HDC peut être aisément réalisée par un dosage colorimétrique sur la base de la réaction chimique suivante :
MBTH = 3-méthyl-2-benzothiazolinone hydrazone DMAB = 3-(diméthylamino)benzoic acid
En pratique, on observe que la formation de la coloration bleue est proportionnelle à la concentration en histidine consommée. On a ainsi pu définir des vitesses initiales de réaction et établir des courbes dites de Mickaelis comme décrit dans Fundamentals of Enzymology, 2nd Ed. Oxford Univ. Press, 1989.
La vitesse initiale est exprimée en variation d'absorbance par minute.
Les résultats obtenus avec diverses concentrations initiales d'histidine, à savoir à 132 nmol, 265 nmol, et 530 nmol, respectivement sans effecteur, avec tritoqualine comme inhibiteur d'HDC connu, et avec la cucurbitine sous forme racémique comme inhibiteur selon l'invention sont répertoriés au tableau II ci-après et font l'objet de la courbe de Mickaelis, objet de la figure 1. Tableau II

Row | % I (Inhibition) à 5 min ([1]; 5 min) | histamine libérée ([1]; 5 min) | % I (Inhibition) à 10 min ([1]; 10 min) | histamine libérée ([1]; 10 min) | vitesse initiale ([2]; Histidine 132 nmol) | vitesse initiale ([2]; Histidine 265 nmol) | vitesse initiale ([2]; Histidine 530 nmol) | Structure (SMILES) | activité inhibitrice de la formation d'histamine (comparison in words) ([1]; compared with tritoqualine, after a few minutes) | inhibiteur d'HDC (comparison in words) ([2]; compared with tritoqualine, Table II and figure 1)
1 | 55% | 14,85 nanomoles | 73% | 38,29 nanomoles | 0,013 variation d'absorbance par minute | 0,0242 variation d'absorbance par minute | 0,042 variation d'absorbance par minute | NC1(C(=O)O)CCNC1 (racemic) [Cucurbitine, acide 3-amine-3-pyrrolidinecarboxylique] | nettement plus puissante que la tritoqualine | beaucoup plus puissant que la tritoqualine
2 | 49% | 16,48 nanomoles | 65% | 49,27 nanomoles | 0,021 variation d'absorbance par minute | 0,0374 variation d'absorbance par minute | 0,0604 variation d'absorbance par minute | CCOc1c(N)c2c(c(OCC)c1OCC)C(C1c3c(cc4c(c3OC)OCO4)CCN1C)OC2=O (stereo not shown) [Tritoqualine, tritoqualine, reference compound] | – | –

Source: EP0575454B1, “USE OF CUCURBITINE FOR THE PREPARATION OF A COSMETIC OR PHARMACEUTICAL, PARTICULARLY DERMATOLOGICAL, ANTIALLERGIC COMPOSITION AND METHOD INVOLVING APPLICATION THEREOF” (PARFUMS CHRISTIAN DIOR, priority 1991, dated 1992)
